Reference: the supplement of paper PMC10307832

Columns and labels:
Experiment in all cases: relative viability (nuclei count vs DMSO), 5 days (fraction); higher = more cells survive
SGI-1776 + Vorinostat = compound: CN1CCC(CNc2ccc3ncc(-c4cccc(OC(F)(F)F)c4)n3n2)CC1 [SGI-1776] + O=C(CCCCCCC(=O)Nc1ccccc1)NO [Vorinostat] (partner 1 µM)
Method in brief: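 One day after seeding in 1536-well plates, lung cancer cell lines were dosed by pin tool. Dosing was either single-drug or a fixed anchor-drug dose plus five library-drug doses (not always all listed) in √10 steps. After 5 days, nuclei were stained in one fix-and-stain step and counted on 4× images, and relative viability is the nuclei count of treated wells over that of vehicle wells, given as the median of duplicate plates.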

SGI-1776 = compound: CN1CCC(CNc2ccc3ncc(-c4cccc(OC(F)(F)F)c4)n3n2)CC1 [SGI-1776]
Method in brief: (§1)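 Five library-drug doses, separated by factors of √10, were pinned into 1536-well plates holding lung cancer cell lines after an overnight stay at 37 °C. Cells were fixed, permeabilised and Hoechst-stained in one step after 5 days without medium change, then imaged at 4×. Viability compares treated-well with vehicle-well nuclei, counted in MetaXpress, as a median across plates. Passing plates had control CV below 25% and at least one doubling.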

Entinostat = compound: Nc1ccccc1NC(=O)c1ccc(CNC(=O)OCc2cccnc2)cc1 [Entinostat]
Method in brief: as §1

[1] = compound: C1COCCN1C2=NC(=NC3=C2OC4=C3C=CC=N4)C5=CC(=CC=C5)NC(=O)C6=CN=C(C=C6)N
Method in brief: as §1

UMC-11
relative viability (SGI-1776 + Vorinostat; first compound 0.08 µM): 0.404
relative viability (SGI-1776 + Vorinostat; first compound 0.8 µM): 0.378
relative viability (SGI-1776 + Vorinostat; first compound 2.53 µM): 0.357
relative viability (SGI-1776 + Vorinostat; first compound 8 µM): 0.228
relative viability (SGI-1776; 0.08 µM): 1
relative viability (SGI-1776; 0.8 µM): 1.04
relative viability (SGI-1776; 2.53 µM): 0.923
relative viability (SGI-1776; 8 µM): 0.779
relative viability (Entinostat; 0.02 µM): 1.14
relative viability (Entinostat; 0.06325 µM): 1.11
relative viability (Entinostat; 0.2 µM): 0.918
relative viability (Entinostat; 0.6325 µM): 0.287
relative viability (Entinostat; 2 µM): 0.203
relative viability ([1]; 0.02 µM): 0.983
relative viability ([1]; 0.06325 µM): 1.05
relative viability ([1]; 0.2 µM): 0.945
relative viability ([1]; 0.6325 µM): 1.13
relative viability ([1]; 2 µM): 0.818
